Data reported in patent publication US20050026950A1, “Methods of therapeutic treatment using retinoids to achieve consistent bioavailability” (Allergan, Inc., priority 2003, published 2005).

What was measured:
Assay type in all cases: in vivo, human
[1] = Two placebo-controlled 24-week safety studies of oral tazarotene plus 16- to 24-week dose-response evaluations
Procedure: Two multicenter, double-blind, randomized, placebo-controlled 24-week studies of identical design are conducted to evaluate the safety of oral tazarotene. In addition, 16- to 24-week dose-response evaluations are performed.
In the two safety trials, the incidence of adverse side effects with a 4.5 mg dose administered orally once daily is compared to the incidence of the same side effects with a placebo. […] The majority of these were mild in severity and typical of adverse effects associated with oral retinoids.

[2] = tested on: moderate to very severe plaque psoriasis; experiment: Open-label extension study of oral tazarotene in plaque psoriasis non-responders
[3] = Studies of orally administered tazarotene for acne, adverse event monitoring; settings: combined data from Studies 1 and 2 (N = 223)
Procedure: Studies are conducted on orally administered tazarotene for the treatment of acne. Adverse events (side effects) are monitored.

[4] = PK and PD interaction studies of oral tazarotene and oral contraceptives in healthy volunteers; settings: orally, up to 6 mg once daily
Procedure: It is the objective of this study to determine if there are pharmacokinetic (PK) and pharmacodynamic (PD) interactions between tazarotene and commonly prescribed oral contraceptives (OCs) when coadministered together.
Three separate clinical studies are conducted to evaluate the PK and PD interactions of oral tazarotene and OCs in healthy volunteers. Two studies evaluate daily doses of norethindrone (NE)/ethinyl estradiol (EE) with daily doses of tazarotene 1.1 mg (N=27) and 6 mg (N=29). The third study assesses the daily doses of norgestimate (NGM)/EE with daily doses of tazarotene 6 mg (N=26). OCs are administered for three consecutive menstrual cycles. Daily doses of tazarotene are started during the 2nd cycle and continued through the end of the studies. PK parameters for EE, NE, and NGM (AUC0-24 and Cmax) are determined before tazarotene dosing and after tazarotene dosing on day 6 of the 2nd and 3rd cycles. Serum concentrations of luteinizing hormone (LH) and follicle-stimulating hormone (FSH)-markers of contraceptive efficacy are also evaluated before tazarotene dosing and after tazarotene dosing on days 2, 4, and 6 of the 2nd and 3rd cycles. Serum progesterone levels are assessed on days 18 and 20 of the 2nd and 3rd cycles. […]

severe psoriasis = experiment: Patient with severe psoriasis taking Ortho-Novum treated with tazarotene; settings: 6 mg per day, after 30 days
From the text: The patient presents symptoms of severe psoriasis. The symptoms include lesions approximately 4 to 10 centimeters across appearing as raised patches of wine red skin many of which are covered in silvery white scales. The lesions are mostly dry and rough, and quite often noticeably warm to the touch. The lesions are present on the elbows, knees, scalp, and groin area. The patient experiences intense burning and itching associated with the lesions.
The patient is currently taking Ortho-Novum® for contraception.
Tazarotene at a dose of 6 mg per day is prescribed.

[5] = 4.5 mg orally once daily, two safety trials
[6] = 4.5 mg once daily, 12-week extension
[7] = 4.5 mg once daily, 12-week extension, across both groups

changes in liver function test values or cholesterol levels [2, 6]: no clinically significant changes
effect on the PK or efficacy of NE/EE and NGM/EE oral contraceptives [4]: does not affect
Structure (SMILES): CCOC(=O)c1ccc(C#Cc2ccc3c(c2)C(C)(C)CCS3)nc1 [tazarotene]
incidence of agitation ([1]; 4.5 mg orally once daily): < 1%
incidence of altered hormone levels (TSH, T4, thyroid function test) ([1]; 4.5 mg orally once daily): 0%
incidence of anxiety ([1]; 4.5 mg orally once daily): 1%
incidence of depression ([1]; 4.5 mg orally once daily): 1%
incidence of emotional lability ([1]; 4.5 mg orally once daily): 3%
incidence of psychosis ([1]; 4.5 mg orally once daily): 0%
incidence of psychotic depression ([1]; 4.5 mg orally once daily): 0%
incidence of hypertriglyceridemia, hypercholesterolemia, abnormal liver function tests, increased ALT/AST, desquamation, eye dryness, alopecia ([1]; 4.5 mg orally once daily vs placebo): essentially the same incidence with oral tazarotene as with placebo
incidence of arthralgia [1, 5]: 17%
incidence of back pain [1, 5]: 7%
incidence of cheilitis [1, 5]: 66%
incidence of dermatitis [1, 5]: 1%
incidence of dry skin [1, 5]: 24%
incidence of foot pain [1, 5]: 3%
incidence of headache [1, 5]: 19%
incidence of hyperglycemia [1, 5]: 2%
incidence of joint disorder [1, 5]: 4%
incidence of myalgia [1, 5]: 14%
incidence of nasal dryness [1, 5]: 4%
incidence of rash [1, 5]: 3%
incidence of patients discontinuing due to adverse effects ([1]; 0.4 to 1.1 mg oral (n=105)): approximately 2%
incidence of patients discontinuing due to adverse effects ([1]; 2.1 to 2.8 mg oral (n=21)): 10%
serious adverse events related to study treatment [2, 6]: no serious adverse events considered related to the study treatment
incidence of arthralgia [2, 7]: 20%
incidence of asthenia [2, 7]: 6%
incidence of back pain [2, 7]: 11%
incidence of cheilitis [2, 7]: 70%
incidence of dry skin [2, 7]: 25%
incidence of headache [2, 7]: 11%
incidence of hypertriglyceridemia [2, 7]: 6%
incidence of infection [2, 7]: 10%
incidence of myalgia [2, 7]: 15%
Clinical success (a 2-grade reduction in OLA), patients ([2]; end of the 12-week post-treatment period): 16%
Cheilitis [3]: 134 (60.1) number (%) of patients
Conjunctivitis [3]: 0 (0.0) number (%) of patients
Desquamation central face/Desquamation [3]: 1 (0.4) number (%) of patients
Dry Skin [3]: 79 (35.4) number (%) of patients
Dry nose [3]: 7 (3.1) number (%) of patients
Epistaxis [3]: 6 (2.7) number (%) of patients
Fingertip peeling/Desquamation [3]: 1 (0.4) number (%) of patients
Headache [3]: 26 (11.7) number (%) of patients
Irritation of eyes [3]: 0 (0.0) number (%) of patients
Joint pain/Arthralgia [3]: 18 (8.1) number (%) of patients
Peeling/Desquamation [3]: 1 (0.4) number (%) of patients
Pruritus [3]: 10 (4.5) number (%) of patients
Rash-dermatitis/Rash [3]: 7 (3.1) number (%) of patients
Red Scaly face/Desquamation [3]: 1 (0.4) number (%) of patients
Skin fragility/Skin disorder [3]: 1 (0.4) number (%) of patients
psoriasis symptoms and lesions (severe psoriasis): symptoms of itching and burning are relieved and the severity of their lesions are substantially lessened
